Assay: in vitro
Settings: human, hek293t cells

| Compound | viability at 48 h, 25 µM |
| --- | --- |
| Cc1cccc(NC(=O)C(C#N)=Cc2cc(C)c(C)cc2C)c1 [8-C18, 2-cyano-N-(3-methylphenyl)-3-(2,4,5-trimethylphenyl)prop-2-enamide] | 92.9% |
| CC1CCCC(NC(=O)C(C#N)=Cc2ccccc2)C1C (stereo not drawn) [8-C19, 2-cyano-N-(2,3-dimethylcyclohexyl)-3-phenylprop-2-enamide] | 27.3% |
| N#CC(=CN1CCN(c2ccccc2)CC1)C(=O)Nc1ccc(F)cc1 [8-C20, 2-cyano-N-(4-fluorophenyl)-3-(4-phenylpiperazin-1-yl)prop-2-enamide] | 72.5% |
| COc1ccc(C=C(C#N)C(=O)Nc2ccccc2Cl)cc1O [8-C21, N-(2-chlorophenyl)-2-cyano-3-(3-hydroxy-4-methoxyphenyl)prop-2-enamide] | 82.8% |
| N#CC(=Cc1cc2cc(F)ccc2o1)C(=O)NC(N)=O [8-C22, {2-cyano-2-[(5-fluoro-1-benzofuran-2-yl)methylidene]acetyl}urea] | 79.1% |
| Cn1ccnc1Sc1ccc(C=C(C#N)C(N)=O)cc1[N+](=O)[O-] [8-D03, 2-cyano-3-{4-[(1-methyl-1H-imidazol-2-yl)sulfanyl]-3-nitrophenyl}prop-2-enamide] | 135% |
| N#CC(=Cc1ccc(F)c([N+](=O)[O-])c1)C(=O)Nc1ccc(F)cc1 [8-D04, 2-cyano-3-(4-fluoro-3-nitrophenyl)-N-(4-fluorophenyl)prop-2-enamide] | 1.12% |
| C=CCNC(=O)C(C#N)=Cc1cccc(C)c1 [8-D05, 2-cyano-3-(3-methylphenyl)-N-(prop-2-en-1-yl)prop-2-enamide] | 102% |
| Cc1ccc(NC(=O)C(C#N)=Cc2cccc(Cl)c2Cl)cc1 [8-D06, 2-cyano-3-(2,3-dichlorophenyl)-N-(4-methylphenyl)prop-2-enamide] | 69.5% |
| N#CC(=Cc1cccc(Oc2ccccc2)c1)C(=O)NC(N)=O [8-D07, {2-cyano-2-[(3-phenoxyphenyl)methylidene]acetyl}urea] | 134% |
| N#CC(=Cc1ccc([N+](=O)[O-])c(Cl)c1)C(=O)NCc1ccccc1 [8-D08, N-benzyl-3-(3-chloro-4-nitrophenyl)-2-cyanoprop-2-enamide] | 1.37% |
| Cc1ccc(NC(=O)C(C#N)=Cc2ccc(C)s2)c(C)c1 [8-D09, 2-cyano-N-(2,4-dimethylphenyl)-3-(5-methylthiophen-2-yl)prop-2-enamide] | 99.2% |
| Cc1ccccc1NC(=O)C(C#N)=Cc1cccnc1 [8-D10, 2-cyano-N-(2-methylphenyl)-3-(pyridin-3-yl)prop-2-enamide] | 95.5% |
| COc1ccc(NC(=O)C(C#N)=Cc2ccc(-c3ccccc3)cc2)cc1 [8-D11, 3-{[1,1'-biphenyl]-4-yl}-2-cyano-N-(4-methoxyphenyl)prop-2-enamide] | 103% |
| CC(=O)Nc1ccc(C=C(C#N)C(=O)NCc2ccccc2)cc1 [8-D12, N-benzyl-2-cyano-3-(4-acetamidophenyl)prop-2-enamide] | 84.4% |
| CC1=CSC(=C(C#N)C(=O)NCc2ccco2)N1c1ccccc1 [8-D13, 2-cyano-N-[(furan-2-yl)methyl]-2-(4-methyl-3-phenyl-2,3-dihydro-1,3-thiazol-2-ylidene)acetamide] | 114% |
| N#CC(=Cc1c2ccccc2cc2ccccc12)C(=O)NC1CCCCC1 [8-D14, 3-(anthracen-9-yl)-2-cyano-N-cyclohexylprop-2-enamide] | 94.6% |
| Cc1ccc(NC(=O)C(C#N)=Cc2cccs2)c(C)c1 [8-D15, 2-cyano-N-(2,4-dimethylphenyl)-3-(thiophen-2-yl)prop-2-enamide] | 101% |

| Compound | viability at 48 h, 25 µM |
| --- | --- |
| Cc1[nH]c2ccccc2c1C=C(C#N)C(=O)NCc1ccccc1 [8-D16, N-benzyl-2-cyano-3-(2-methyl-1H-indol-3-yl)prop-2-enamide] | 96.6% |
| N#CC(=CC(Cl)=Cc1ccccc1)C(=O)NC1CCCCC1 [8-D17, 4-chloro-2-cyano-N-cyclohexyl-5-phenylpenta-2,4-dienamide] | 7.44% |
| N#CC(=Cc1c(F)cccc1F)C(=O)NCCc1ccccc1 [8-D18, 2-cyano-3-(2,6-difluorophenyl)-N-(2-phenylethyl)prop-2-enamide] | 47.1% |
| Cc1ccccc1NC(=O)C(C#N)=Cc1cc(C)n(CC(C)C)c1C [8-D19, 2-cyano-3-[2,5-dimethyl-1-(2-methylpropyl)-1H-pyrrol-3-yl]-N-(2-methylphenyl)prop-2-enamide] | 118% |
| N#CC(=Cc1cccs1)C(=O)Nc1cccc2ncccc12 [8-D20, 2-cyano-N-(quinolin-5-yl)-3-(thiophen-2-yl)prop-2-enamide] | 84.3% |
| Cc1ccc(C=C(C#N)C(=O)NC(N)=O)o1 [8-D21, {2-cyano-2-[(5-methylfuran-2-yl)methylidene]acetyl}urea] | 101% |
| Cc1ccsc1C=C(C#N)C(=O)Nc1c(Cl)cccc1Cl [8-D22, 2-cyano-N-(2,6-dichlorophenyl)-3-(3-methylthiophen-2-yl)prop-2-enamide] | 78.5% |
| N#CC(=Cc1ccc(OC(F)F)cc1)C(=O)N1CCCc2ccccc21 [8-E03, 3-[4-(difluoromethoxy)phenyl]-2-(1,2,3,4-tetrahydroquinoline-1-carbonyl)prop-2-enenitrile] | 64.6% |
| Cc1ccc(C=C(C#N)C(=O)Nc2ccc(C(=O)O)cc2)s1 [8-E04, 4-[2-cyano-3-(5-methylthiophen-2-yl)prop-2-enamido]benzoic acid] | 91.5% |
| CCNC(=O)C(C#N)=Cc1ccc(OC(F)F)cc1 [8-E05, 2-cyano-3-[4-(difluoromethoxy)phenyl]-N-ethylprop-2-enamide] | 81.4% |
| CN(C)c1ccc(C=C(C#N)C(=O)Nc2nccs2)cc1 [8-E06, 2-cyano-3-[4-(dimethylamino)phenyl]-N-(1,3-thiazol-2-yl)prop-2-enamide] | 75.1% |
| CC1CCCCC1NC(=O)C(C#N)=Cc1cccc(O)c1 (stereo not drawn) [8-E07, 2-cyano-3-(3-hydroxyphenyl)-N-(2-methylcyclohexyl)prop-2-enamide] | 45.1% |
| Cc1n[nH]c(C)c1C=C(C#N)C(=O)Nc1ccc(SC(F)F)cc1 [8-E08, 2-cyano-N-{4-[(difluoromethyl)sulfanyl]phenyl}-3-(3,5-dimethyl-1H-pyrazol-4-yl)prop-2-enamide] | 78.2% |
| C=CCNC(=O)C(C#N)=Cc1ccccc1[N+](=O)[O-] [8-E09, 2-cyano-3-(2-nitrophenyl)-N-(prop-2-en-1-yl)prop-2-enamide] | 109% |
| N#CC(=Cc1cc(F)ccc1F)C(=O)Nc1ccc(F)cc1 [8-E10, 2-cyano-3-(2,5-difluorophenyl)-N-(4-fluorophenyl)prop-2-enamide] | 87.5% |
| COc1ccccc1NC(=O)C(C#N)=Cc1ccccc1F [8-E11, 2-cyano-3-(2-fluorophenyl)-N-(2-methoxyphenyl)prop-2-enamide] | 67.4% |
| Cc1ccc(C=C(C#N)C(=O)NC2CCCC2)cc1C [8-E12, 2-cyano-N-cyclopentyl-3-(3,4-dimethylphenyl)prop-2-enamide] | 54.9% |
| Cc1cc(C)c(NC(=O)C(C#N)=Cc2ccccc2C)c(C)c1 [8-E13, 2-cyano-3-(2-methylphenyl)-N-(2,4,6-trimethylphenyl)prop-2-enamide] | 37.8% |

From article PMC11995724, “Antibiotic target discovery by integrated phenotypic and activity-based profiling of electrophilic fragments” (Cell chemical biology, 2025)
